Test results as given in US9695155B2, “Herbicidal substituted pyrimidinyloxy benzene compounds” (E. I. DU PONT DE NEMOURS AND COMPANY, priority 2013, dated 2017).

Legend:
barnyardgrass [1] = test: Test C postemergence; type: in vivo, Echinochloa crus-galli
Summary of the method: (§1)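 Greenhouse herbicide screen. Pre: seeded loam/sand, sprayed at planting. Post: 1–4 leaf plants (2–18 cm) in peat-based mix. Formulation: solvent mixture + surfactant, non-phytotoxic. Readout: visual % control vs untreated, 13–15 d; dash = not tested.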

waterhemp = test: Test C postemergence; type: in vivo, Amaranthus rudis
Summary of the method: as §1

pigweed [2] = test: Test A preemergence; type: in vivo, Amaranthus retroflexus; details: for Pigweed plant response rating: 500 g ai/ha
Summary of the method: (§2)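 Compounds in non-phytotoxic solvent with surfactant applied as soil spray preemergence, or postemergence to plants 2-10 cm at one- to two-leaf stage, in loam/sand. After approximately 10 days in greenhouse, injury rated visually versus untreated controls, 0 (no effect) to 100 (complete control).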

giant foxtail = test: Test A preemergence; type: in vivo, Setaria faberii; details: for Foxtail, Giant plant response rating: 500 g ai/ha
Summary of the method: as §2

lambsquarters = test: Test C postemergence; type: in vivo, Chenopodium album
Summary of the method: as §1

barnyardgrass [3] = test: Test A preemergence; type: in vivo, Echinochloa crus-galli; details: for Barnyardgrass plant response rating: 500 g ai/ha
Summary of the method: as §2

large (Lg) crabgrass = test: Test C postemergence; type: in vivo, Digitaria sanguinalis
Summary of the method: as §1

blackgrass = test: Test C postemergence; type: in vivo, Alopecurus myosuroides
Summary of the method: as §1

pigweed [4] = test: Test A postemergence; type: in vivo, Amaranthus retroflexus
Summary of the method: as §2

oilseed rape = test: Test C postemergence; type: in vivo, Brassica napus
Summary of the method: as §1

galium = test: Test C postemergence; type: in vivo, Galium aparine
Summary of the method: as §1

johnsongrass = test: Test C postemergence; type: in vivo, Sorghum halepense
Summary of the method: as §1

wild oat = test: Test C postemergence; type: in vivo, Avena fatua
Summary of the method: as §1

[5] = 16 g ai/ha, postemergence, 0 is no effect, 100 is complete control
[6] = 31 g ai/ha, postemergence, visual rating, scale 0 to 100 (0 no effect, 100 complete control), 13 to 15 days
[7] = 125 g ai/ha, postemergence, visual rating, scale 0 to 100 (0 no effect, 100 complete control)
[8] = Postemergence, 62 g ai/ha, scale 0 to 100 (0 no effect, 100 complete control), 13 to 15 days
[9] = 0 to 100 scale where 0 is no effect and 100 is complete control
[10] = 500 g ai/ha, 0 to 100 scale where 0 is no effect and 100 is complete control
[11] = 125 g ai/ha, 0 to 100 scale where 0 is no effect and 100 is complete control

SMILES: N#Cc1cnn(-c2c(Oc3ncc(F)cn3)cccc2C(F)F)c1 [Compound 240]
- Plant response rating (0 to 100), Barnyardgrass (barnyardgrass [1]; [5]): 0
- Barnyardgrass plant response rating (barnyardgrass [1]; [6]): 10
- Plant response rating, Barnyardgrass (barnyardgrass [1]; [7]): 20
- Plant response rating, Barnyardgrass (barnyardgrass [1]; Postemergence, 62 g ai/ha, scale 0 to 100 (0 no effect, 100 complete control)): 10
- Plant response rating (0 to 100), Waterhemp (waterhemp; [5]): 10
- Waterhemp plant response rating (waterhemp; [6]): 25
- Plant response rating, Waterhemp (waterhemp; [7]): 70
- Plant response rating, Waterhemp (waterhemp; [8]): 55
- Pigweed plant response rating (0 to 100 scale) (pigweed [2]; 125 g ai/ha): 100
- Pigweed plant response rating (pigweed [2]; [9]): 100
- Foxtail, Giant plant response rating (0 to 100 scale) (giant foxtail; 125 g ai/ha): 100
- Foxtail, Giant plant response rating (giant foxtail; [9]): 100
- Plant response rating (0 to 100), Lambsquarters (lambsquarters; [5]): 15
- Lambsquarters plant response rating (lambsquarters; [6]): 45
- Plant response rating, Lambsquarters (lambsquarters; [7]): 90
- Plant response rating, Lambsquarters (lambsquarters; [8]): 75
- Barnyardgrass plant response rating (0 to 100 scale, 0 is no effect, 100 is complete control) (barnyardgrass [3]; 125 g ai/ha): 90
- Barnyardgrass plant response rating (barnyardgrass [3]; [9]): 100
- Plant response rating (0 to 100), Crabgrass, Large (large (Lg) crabgrass; [5]): 10
- Crabgrass, Large plant response rating (large (Lg) crabgrass; [6]): 5
- Plant response rating, Crabgrass, Large (large (Lg) crabgrass; [7]): 20
- Plant response rating, Crabgrass, Large (large (Lg) crabgrass; [8]): 5
- Plant response rating (0 to 100), Blackgrass (blackgrass; [5]): 0
- Blackgrass plant response rating (blackgrass; [6]): 0
- Plant response rating, Blackgrass (blackgrass; [7]): 5
- Plant response rating, Blackgrass (blackgrass; [8]): 0
- Plant response rating, Pigweed (pigweed [4]; 125 g ai/ha, 0 to 100 scale, 0 no effect, 100 complete control): 100
- Plant response rating, Pigweed (pigweed [4]; [10]): 100
- Plant response rating (0 to 100), Oilseed Rape (oilseed rape; [5]): 30
- Oilseed Rape plant response rating (oilseed rape; [6]): 35
- Plant response rating, Oilseed Rape (oilseed rape; [7]): 60
- Plant response rating, Oilseed Rape (oilseed rape; [8]): 55
- Plant response rating (0 to 100), Galium (galium; [5]): 35
- Galium plant response rating (galium; [6]): 40
- Plant response rating, Galium (galium; [7]): 70
- Plant response rating, Galium (galium; [8]): 55
- Plant response rating (0 to 100), Johnsongrass (johnsongrass; [5]): 10
- Johnsongrass plant response rating (johnsongrass; [6]): 5
- Plant response rating, Johnsongrass (johnsongrass; [7]): 10
- Plant response rating, Johnsongrass (johnsongrass; [8]): 5
- Plant response rating (0 to 100), Oat, Wild (wild oat; [5]): 0
- Oat, Wild plant response rating (wild oat; [6]): 0
- Plant response rating, Oat, Wild (wild oat; [7]): 0
- Plant response rating, Oat, Wild (wild oat; [8]): 0

SMILES: N#Cc1cccc(Oc2ncc(Cl)cn2)c1-n1cc(SC(F)(F)F)cn1 [Compound 134, 3-[(5-chloro-2-pyrimidinyl)oxy]-2-[4-(trifluoromethylthio)-1-pyrazolyl]benzonitrile]
- pest or weed control at 16 g/ha (barnyardgrass [1]; Echinochloa crus-galli, post-emergence, 16 g ai/ha, postemergence, 0 is no effect, 100 is complete control, read-out: Plant response rating (0 to 100), Barnyardgrass): 0%
- pest or weed control at 125 g/ha (barnyardgrass [1]; Echinochloa crus-galli, post-emergence, 125 g ai/ha, postemergence, visual rating, scale 0 to 100 (0 no effect, 100 complete control), read-out: Plant response rating, Barnyardgrass): 10%
- pest or weed control at 31 g/ha (barnyardgrass [1]; Echinochloa crus-galli, post-emergence, Postemergence, 31 g ai/ha, scale 0 to 100 (0 no effect, 100 complete control), 13 to 15 days, read-out: Plant response rating, Barnyardgrass): 5%
- pest or weed control at 62 g/ha (barnyardgrass [1]; Echinochloa crus-galli, post-emergence, Postemergence, 62 g ai/ha, scale 0 to 100 (0 no effect, 100 complete control), read-out: Plant response rating, Barnyardgrass): 5%
- pest or weed control at 16 g/ha (waterhemp; Amaranthus tuberculatus, post-emergence, 16 g ai/ha, postemergence, 0 is no effect, 100 is complete control, read-out: Plant response rating (0 to 100), Waterhemp): 55%
- pest or weed control at 125 g/ha (waterhemp; Amaranthus tuberculatus, post-emergence, 125 g ai/ha, postemergence, visual rating, scale 0 to 100 (0 no effect, 100 complete control), read-out: Plant response rating, Waterhemp): 85%
- pest or weed control at 62 g/ha (waterhemp; Amaranthus tuberculatus, post-emergence, Postemergence, 62 g ai/ha, scale 0 to 100 (0 no effect, 100 complete control), read-out: Plant response rating, Waterhemp): 60%
- Pigweed plant response rating (pigweed [2]; [9]): 100
- pest or weed control at 125 g/ha (pigweed [2]; Amaranthus retroflexus, pre-emergence, 125 g ai/ha, 0 to 100 scale where 0 is no effect and 100 is complete control, read-out: Plant response rating, Pigweed): 100%
- Foxtail, Giant plant response rating (giant foxtail; [9]): 100
- pest or weed control at 125 g/ha (giant foxtail; Setaria faberi, pre-emergence, 240 h, 125 g ai/ha, 0 to 100 scale where 0 is no effect and 100 is complete control, read-out: Plant response rating, Foxtail, Giant): 100%
- pest or weed control at 16 g/ha (lambsquarters; Chenopodium album, post-emergence, 16 g ai/ha, postemergence, 0 is no effect, 100 is complete control, read-out: Plant response rating (0 to 100), Lambsquarters): 5%
- pest or weed control at 125 g/ha (lambsquarters; Chenopodium album, post-emergence, 125 g ai/ha, postemergence, visual rating, scale 0 to 100 (0 no effect, 100 complete control), read-out: Plant response rating, Lambsquarters): 65%
- pest or weed control at 62 g/ha (lambsquarters; Chenopodium album, post-emergence, Postemergence, 62 g ai/ha, scale 0 to 100 (0 no effect, 100 complete control), read-out: Plant response rating, Lambsquarters): 75%
- Plant response rating, Barnyardgrass (barnyardgrass [3]; [11]): 70
- Barnyardgrass plant response rating (barnyardgrass [3]; [9]): 100
- pest or weed control at 16 g/ha (large (Lg) crabgrass; Digitaria sanguinalis, post-emergence, 16 g ai/ha, postemergence, 0 is no effect, 100 is complete control, read-out: Plant response rating (0 to 100), Crabgrass, Large): 5%
- pest or weed control at 125 g/ha (large (Lg) crabgrass; Digitaria sanguinalis, post-emergence, 125 g ai/ha, postemergence, visual rating, scale 0 to 100 (0 no effect, 100 complete control), read-out: Plant response rating, Crabgrass, Large): 15%
- pest or weed control at 62 g/ha (large (Lg) crabgrass; Digitaria sanguinalis, post-emergence, Postemergence, 62 g ai/ha, scale 0 to 100 (0 no effect, 100 complete control), read-out: Plant response rating, Crabgrass, Large): 10%
- pest or weed control at 16 g/ha (blackgrass; Alopecurus myosuroides, post-emergence, 16 g ai/ha, postemergence, 0 is no effect, 100 is complete control, read-out: Plant response rating (0 to 100), Blackgrass): 5%
- pest or weed control at 125 g/ha (blackgrass; Alopecurus myosuroides, post-emergence, 125 g ai/ha, postemergence, visual rating, scale 0 to 100 (0 no effect, 100 complete control), read-out: Plant response rating, Blackgrass): 10%
- pest or weed control at 31 g/ha (blackgrass; Alopecurus myosuroides, post-emergence, Postemergence, 31 g ai/ha, scale 0 to 100 (0 no effect, 100 complete control), 13 to 15 days, read-out: Plant response rating, Blackgrass): 25%
- pest or weed control at 62 g/ha (blackgrass; Alopecurus myosuroides, post-emergence, Postemergence, 62 g ai/ha, scale 0 to 100 (0 no effect, 100 complete control), read-out: Plant response rating, Blackgrass): 5%
- Pigweed plant response rating (pigweed [4]; [11]): 100
- Plant response rating, Pigweed (pigweed [4]; [10]): 100
- plant injury at 16 g/ha (oilseed rape; Brassica napus, post-emergence, 16 g ai/ha, postemergence, 0 is no effect, 100 is complete control, read-out: Plant response rating (0 to 100), Oilseed Rape): 5%
- plant injury at 125 g/ha (oilseed rape; Brassica napus, post-emergence, 125 g ai/ha, postemergence, visual rating, scale 0 to 100 (0 no effect, 100 complete control), read-out: Plant response rating, Oilseed Rape): 60%
- plant injury at 62 g/ha (oilseed rape; Brassica napus, post-emergence, Postemergence, 62 g ai/ha, scale 0 to 100 (0 no effect, 100 complete control), read-out: Plant response rating, Oilseed Rape): 70%
- pest or weed control at 16 g/ha (galium; Galium, post-emergence, 16 g ai/ha, postemergence, 0 is no effect, 100 is complete control, read-out: Plant response rating (0 to 100), Galium): 65%
- pest or weed control at 125 g/ha (galium; Galium, post-emergence, 125 g ai/ha, postemergence, visual rating, scale 0 to 100 (0 no effect, 100 complete control), read-out: Plant response rating, Galium): 85%
- pest or weed control at 62 g/ha (galium; Galium, post-emergence, Postemergence, 62 g ai/ha, scale 0 to 100 (0 no effect, 100 complete control), read-out: Plant response rating, Galium): 85%
- pest or weed control at 16 g/ha (johnsongrass; Sorghum halepense, post-emergence, 16 g ai/ha, postemergence, 0 is no effect, 100 is complete control, read-out: Plant response rating (0 to 100), Johnsongrass): 5%
- pest or weed control at 125 g/ha (johnsongrass; Sorghum halepense, post-emergence, 125 g ai/ha, postemergence, visual rating, scale 0 to 100 (0 no effect, 100 complete control), read-out: Plant response rating, Johnsongrass): 15%
- pest or weed control at 62 g/ha (johnsongrass; Sorghum halepense, post-emergence, Postemergence, 62 g ai/ha, scale 0 to 100 (0 no effect, 100 complete control), read-out: Plant response rating, Johnsongrass): 5%
- pest or weed control at 16 g/ha (wild oat; Avena fatua, post-emergence, 16 g ai/ha, postemergence, 0 is no effect, 100 is complete control, read-out: Plant response rating (0 to 100), Oat, Wild): 5%
- pest or weed control at 125 g/ha (wild oat; Avena fatua, post-emergence, 125 g ai/ha, postemergence, visual rating, scale 0 to 100 (0 no effect, 100 complete control), read-out: Plant response rating, Oat, Wild): 10%
- pest or weed control at 62 g/ha (wild oat; Avena fatua, post-emergence, Postemergence, 62 g ai/ha, scale 0 to 100 (0 no effect, 100 complete control), read-out: Plant response rating, Oat, Wild): 10%
